Measurements taken from patent US8481459B2, “Chemical inhibitors of ethylene biosynthesis” (Academia Sinica, priority 2010, dated 2013).

Molecular target: T1, recombinant Arabidopsis ACS5 (Arabidopsis thaliana, UniProt Q37001)
T1 construct: The full-length cDNA of Arabidopsis ACS5 (At5g65800) was cloned to pETDuet (Novagen); 6His (N); made in house; host or cells: E. coli BL21-CodonPlus (Stratagene)
T1 sequence (Q37001 1-470): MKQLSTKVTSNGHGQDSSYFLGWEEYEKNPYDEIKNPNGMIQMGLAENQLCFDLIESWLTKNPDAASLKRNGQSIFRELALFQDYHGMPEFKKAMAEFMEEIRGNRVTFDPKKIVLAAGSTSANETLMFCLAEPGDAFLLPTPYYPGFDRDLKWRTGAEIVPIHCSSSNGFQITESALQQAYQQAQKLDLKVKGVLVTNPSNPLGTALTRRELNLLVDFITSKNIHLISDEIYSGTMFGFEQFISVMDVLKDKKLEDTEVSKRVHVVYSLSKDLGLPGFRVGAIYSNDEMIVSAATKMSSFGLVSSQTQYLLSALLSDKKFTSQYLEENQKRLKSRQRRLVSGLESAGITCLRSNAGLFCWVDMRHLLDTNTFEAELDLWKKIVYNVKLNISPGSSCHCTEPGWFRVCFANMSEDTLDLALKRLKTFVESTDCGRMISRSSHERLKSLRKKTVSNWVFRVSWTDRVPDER
Test: In vitro ACS activity assay
Type: biochemical
Details: purified recombinant ACS5, 30 min at 25° C.; read-out: estimated half maximal inhibitory concentration (IC50), ACS5 enzyme activity
Description: The full-length cDNA of Arabidopsis ACS5 (At5g65800) was cloned to pETDuet (Novagen) to generate pETDuet-6His-ACS5 for expression in E. coli (BL21-CodonPlus, Stratagene) and subsequent purification of the recombinant ACS5 protein. Protein expression was induced at OD600 0.6 by adding 0.4 mM IPTG, and cells were incubated at 16° C. for 18 h. Cells were harvested by centrifugation at 6000×g for 10 min at 4° C. The cell pellet was washed and suspended in 50 mL phosphate buffer (300 mM NaCl, 20 mM phosphate buffer, pH 7.4) containing 20 mM imidazole. Cell lysis was achieved by a continuous high-pressure cell disrupter (TS 2.2 KW, Constant System) with 30 KPsi at 4° C. After washing the cell disrupter twice with 50 ml phosphate buffer containing 20 mM imidazole, the final 150 ml suspension was centrifuged at 10000×g for 30 min at 4° C. The supernatant was applied to a 5-mL HisTrap FF column in an AKTAprime system (GE Healthcare) and was subsequently washed stepwise with 100 mL buffer A (1 mM EDTA, 5 mM DTT, 250 mM HEPES buffer, pH 8.0) containing 20 mM imidazole, then 100 mL buffer A containing 100 mM imidazole. The bound protein was eluted by a 0.1-1.0 M gradient of imidazole in 25 mL buffer A and stored at −80° C. until further analysis.
ACS activity assay was performed as described (Lizada, et al. (1979) Anal Biochem 100, 140-145; Yamagami, et al. (2003) J Biol Chem 278, 49102-49112), with minor modifications. […] Ethylene level was measured by use of a gas chromatograph (HP 6890, Hewlett-Packard) equipped with a capillary column (19095P-U04, Agilent Technologies) and an autosampler (HP 7694, Agilent Technologies). […]
To further test this possibility, recombinant Arabidopsis ACS5 protein from bacterial cells was purified for an in vitro enzyme activity assay. […] The quantity of ACC converted to ethylene by recombinant ACS5 is the readout of ACS activity. […]

Going from COc1ccc(C2CC(=O)c3cnc(Nc4ccccc4)nc3C2)cc1 (stereo not drawn) [Compound 7303] to Cc1ccc(C2CC(=O)c3cnc(NC4CCCC4)nc3C2)cc1 (stereo not drawn) [Compound 9370], the IC50 rises from 500 nM to 1400 nM (2.8-fold). The first is the more potent here.

In the case of CC1(C)CC(=O)c2cnc(NC3CCCC3)nc2C1 [Compound 9393], the IC50 is reported as 3200 nM.
